From patent US10344060B2 (priority 2013, dated 2019)

Assays:
hNav1.4 = hNav1.4 (Homo sapiens, UniProt P35499); assay: cell-based; format: cell-based; settings: for IC50: PatchXpress, tonic block, read-out: PX hNav1.4 Tonic IC50; for Nav1.4/Nav1.7: ratio of PX tonic IC50 values
hNav1.7 = hNav1.7 (Homo sapiens, UniProt Q15858); assay: cell-based; format: cell-based; settings: Table 12; PatchXpress, tonic block; read-out: PX hNav1.7 Tonic IC50
Sequence of hNav1.7 (Q15858 whole entry): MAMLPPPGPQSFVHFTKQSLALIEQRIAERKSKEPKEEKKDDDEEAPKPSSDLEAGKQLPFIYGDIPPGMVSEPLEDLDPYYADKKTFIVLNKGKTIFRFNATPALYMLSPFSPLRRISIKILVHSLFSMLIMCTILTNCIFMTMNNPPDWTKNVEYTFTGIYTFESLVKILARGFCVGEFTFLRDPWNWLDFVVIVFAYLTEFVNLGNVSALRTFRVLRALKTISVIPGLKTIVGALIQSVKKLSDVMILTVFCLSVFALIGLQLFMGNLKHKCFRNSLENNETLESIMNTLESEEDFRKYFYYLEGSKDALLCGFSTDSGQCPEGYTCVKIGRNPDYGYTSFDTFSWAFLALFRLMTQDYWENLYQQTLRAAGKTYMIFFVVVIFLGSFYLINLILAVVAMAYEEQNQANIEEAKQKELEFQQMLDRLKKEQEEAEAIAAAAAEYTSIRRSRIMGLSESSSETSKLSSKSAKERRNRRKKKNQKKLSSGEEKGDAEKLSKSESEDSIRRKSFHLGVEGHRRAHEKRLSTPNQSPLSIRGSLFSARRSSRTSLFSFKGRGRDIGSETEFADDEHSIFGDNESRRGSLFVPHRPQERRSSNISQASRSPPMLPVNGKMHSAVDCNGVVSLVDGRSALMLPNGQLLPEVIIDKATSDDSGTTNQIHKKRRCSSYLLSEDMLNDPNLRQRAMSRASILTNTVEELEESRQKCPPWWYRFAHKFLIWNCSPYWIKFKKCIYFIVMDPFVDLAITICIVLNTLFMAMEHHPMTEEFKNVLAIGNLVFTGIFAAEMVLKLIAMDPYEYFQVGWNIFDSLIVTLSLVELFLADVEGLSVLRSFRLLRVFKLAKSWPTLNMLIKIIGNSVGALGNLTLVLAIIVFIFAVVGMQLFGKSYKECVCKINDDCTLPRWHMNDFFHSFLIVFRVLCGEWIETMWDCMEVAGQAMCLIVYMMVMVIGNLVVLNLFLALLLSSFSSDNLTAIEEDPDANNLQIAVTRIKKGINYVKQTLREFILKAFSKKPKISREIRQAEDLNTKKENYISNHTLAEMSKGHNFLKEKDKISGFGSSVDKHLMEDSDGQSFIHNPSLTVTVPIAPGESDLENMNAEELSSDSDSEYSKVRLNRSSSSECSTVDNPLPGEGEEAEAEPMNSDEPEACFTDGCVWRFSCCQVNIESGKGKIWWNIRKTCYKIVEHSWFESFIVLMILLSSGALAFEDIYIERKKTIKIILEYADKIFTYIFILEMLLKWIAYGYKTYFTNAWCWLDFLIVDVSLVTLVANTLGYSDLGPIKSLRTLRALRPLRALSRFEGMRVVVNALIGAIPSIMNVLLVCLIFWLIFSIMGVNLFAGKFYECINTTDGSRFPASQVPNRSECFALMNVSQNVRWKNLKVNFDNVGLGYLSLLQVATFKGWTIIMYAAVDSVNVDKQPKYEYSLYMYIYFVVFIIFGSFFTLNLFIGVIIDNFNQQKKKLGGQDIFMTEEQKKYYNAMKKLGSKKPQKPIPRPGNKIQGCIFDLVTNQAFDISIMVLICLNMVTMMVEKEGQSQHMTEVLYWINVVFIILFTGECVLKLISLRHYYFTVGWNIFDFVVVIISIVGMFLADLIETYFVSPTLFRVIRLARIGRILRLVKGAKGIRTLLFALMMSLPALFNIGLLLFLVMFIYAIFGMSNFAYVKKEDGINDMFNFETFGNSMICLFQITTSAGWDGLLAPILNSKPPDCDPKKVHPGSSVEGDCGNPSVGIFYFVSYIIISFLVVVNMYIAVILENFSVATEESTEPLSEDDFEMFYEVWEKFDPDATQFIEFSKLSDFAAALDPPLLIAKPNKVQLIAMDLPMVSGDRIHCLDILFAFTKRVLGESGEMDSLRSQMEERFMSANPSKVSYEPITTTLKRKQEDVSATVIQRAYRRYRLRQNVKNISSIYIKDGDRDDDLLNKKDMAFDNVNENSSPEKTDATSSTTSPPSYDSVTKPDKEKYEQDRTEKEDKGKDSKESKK

Sequence of hNav1.4 (P35499 whole entry): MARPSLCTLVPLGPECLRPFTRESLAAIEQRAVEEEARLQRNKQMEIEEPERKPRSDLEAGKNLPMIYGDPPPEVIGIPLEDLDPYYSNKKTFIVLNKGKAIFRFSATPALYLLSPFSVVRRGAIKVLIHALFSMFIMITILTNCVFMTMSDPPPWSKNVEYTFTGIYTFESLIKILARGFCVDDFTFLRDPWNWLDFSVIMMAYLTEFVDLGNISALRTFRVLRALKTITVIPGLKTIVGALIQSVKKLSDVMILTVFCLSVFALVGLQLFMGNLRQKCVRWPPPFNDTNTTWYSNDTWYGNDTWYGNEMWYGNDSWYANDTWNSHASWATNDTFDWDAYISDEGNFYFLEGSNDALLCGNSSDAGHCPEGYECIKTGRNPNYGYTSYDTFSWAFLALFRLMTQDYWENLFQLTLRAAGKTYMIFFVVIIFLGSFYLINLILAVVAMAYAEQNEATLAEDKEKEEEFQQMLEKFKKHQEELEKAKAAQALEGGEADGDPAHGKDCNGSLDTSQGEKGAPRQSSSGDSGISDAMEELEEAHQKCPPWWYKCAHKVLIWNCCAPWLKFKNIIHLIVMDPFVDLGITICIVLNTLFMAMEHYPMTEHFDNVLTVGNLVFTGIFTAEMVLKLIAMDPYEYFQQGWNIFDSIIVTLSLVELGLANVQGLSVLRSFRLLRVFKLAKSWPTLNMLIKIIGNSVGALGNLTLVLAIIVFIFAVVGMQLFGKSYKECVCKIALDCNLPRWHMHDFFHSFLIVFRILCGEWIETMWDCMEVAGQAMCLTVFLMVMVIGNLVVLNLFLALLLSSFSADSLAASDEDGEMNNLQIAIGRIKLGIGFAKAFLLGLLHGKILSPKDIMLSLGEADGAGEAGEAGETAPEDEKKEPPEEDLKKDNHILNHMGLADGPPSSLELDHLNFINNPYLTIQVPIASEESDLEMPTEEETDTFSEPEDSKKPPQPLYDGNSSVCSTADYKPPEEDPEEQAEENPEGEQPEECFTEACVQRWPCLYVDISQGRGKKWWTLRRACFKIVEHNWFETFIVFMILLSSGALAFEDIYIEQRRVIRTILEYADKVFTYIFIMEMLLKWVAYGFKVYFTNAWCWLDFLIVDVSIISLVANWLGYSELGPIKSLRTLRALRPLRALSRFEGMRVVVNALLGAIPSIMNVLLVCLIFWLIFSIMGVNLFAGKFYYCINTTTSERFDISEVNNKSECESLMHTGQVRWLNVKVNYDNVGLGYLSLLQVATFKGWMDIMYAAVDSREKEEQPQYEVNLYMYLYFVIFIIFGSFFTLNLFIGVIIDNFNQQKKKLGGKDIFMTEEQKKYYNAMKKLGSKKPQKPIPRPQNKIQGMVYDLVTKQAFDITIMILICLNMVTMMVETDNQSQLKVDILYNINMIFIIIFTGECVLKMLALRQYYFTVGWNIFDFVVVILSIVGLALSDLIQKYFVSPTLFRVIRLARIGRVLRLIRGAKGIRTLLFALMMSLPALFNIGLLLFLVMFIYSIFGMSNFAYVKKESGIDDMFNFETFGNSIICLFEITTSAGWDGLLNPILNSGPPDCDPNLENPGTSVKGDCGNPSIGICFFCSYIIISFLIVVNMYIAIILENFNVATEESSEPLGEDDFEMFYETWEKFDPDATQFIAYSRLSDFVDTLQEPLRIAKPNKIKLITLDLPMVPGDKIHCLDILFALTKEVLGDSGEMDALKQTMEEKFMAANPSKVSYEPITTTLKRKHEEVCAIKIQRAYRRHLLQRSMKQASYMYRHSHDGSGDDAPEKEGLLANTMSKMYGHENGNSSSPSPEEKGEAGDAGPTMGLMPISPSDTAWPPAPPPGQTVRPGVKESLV

Structure (SMILES) | IC50 (hNav1.4; Table 12) [nM] | Nav1.4/Nav1.7 (hNav1.4; Table 12) | IC50 (hNav1.7) [nM] | Nav1.4/Nav1.7 (hNav1.4; Table 13)
C#CC[C@H](N)C(=O)N[C@@H](Cc1ccc(O)cc1)C(=O)N[C@H]1CSSC[C@@H]2NC(=O)[C@@H]3CSSC[C@@H](C(=O)N[C@@H](CCCNC(=N)N)C(=O)N[C@@H](CCCCN)C(=O)N[C@@H](CCC(=O)O)C(=O)N[C@H](C(N)=O)[C@@H](C)CC)NC(=O)[C@H](Cc4c[nH]c5ccccc45)NC(=O)[C@H](CC(C)C)NC(=O)[C@H](CCCCN)NC(=O)[C@H](CSSC[C@H](NC(=O)[C@H]([C@@H](C)O)NC(=O)[C@H](Cc4ccccc4)NC(=O)[C@H](CCCC)NC(=O)[C@H](Cc4c[nH]c5ccccc45)NC(=O)[C@H](CCCCN)NC(=O)[C@H](CCC(N)=O)NC1=O)C(=O)N[C@@H](CC(=O)O)C(=O)N[C@@H](CO)C(=O)N[C@@H](CCCCN)C(=O)N[C@@H](CCCNC(=N)N)C(=O)N[C@@H](C)C(=O)N3)NC(=O)[C@H](CCCNC(=N)N)NC(=O)[C@H](CC(C)C)NC(=O)CNC(=O)[C@H](CCC(=O)O)NC2=O [compound 848] | 1010 | 80 | 12.6 | –
C#CC[C@H](N)C(=O)N[C@@H](Cc1ccc(O)cc1)C(=O)N[C@H]1CSSC[C@@H]2NC(=O)[C@@H]3CSSC[C@@H](C(=O)N[C@@H](CCCNC(=N)N)C(=O)N[C@@H](CCCCN)C(=O)N[C@@H](CCC(=O)O)C(=O)N[C@@H](CC4CCCCC4)C(N)=O)NC(=O)[C@H](Cc4c[nH]c5ccccc45)NC(=O)[C@H](CC(C)C)NC(=O)[C@H](CCCCN)NC(=O)[C@H](CSSC[C@H](NC(=O)[C@H]([C@@H](C)O)NC(=O)[C@H](Cc4c[nH]c5ccccc45)NC(=O)[C@H](CCCC)NC(=O)[C@H](Cc4c[nH]c5ccccc45)NC(=O)[C@H](CCCCN)NC(=O)[C@H](CCC(N)=O)NC1=O)C(=O)N[C@@H](CC(=O)O)C(=O)N[C@@H](CO)C(=O)N[C@@H](CCCCN)C(=O)N[C@@H](CCCNC(=N)N)C(=O)N[C@@H](C)C(=O)N3)NC(=O)[C@H](CCCNC(=N)N)NC(=O)[C@H](CC(C)C)NC(=O)CNC(=O)[C@H](CCC(=O)O)NC2=O [compound 862] | 36.6 | 62 | 0.593 | –
C#CC[C@@H]1NC(=O)[C@@H]2CSSC[C@H](NC(=O)[C@H](Cc3ccc(O)cc3)NC(=O)[C@@H](N)CC#N)C(=O)N[C@@H](CCC(N)=O)C(=O)N[C@@H](CCCCN)C(=O)N[C@@H](Cc3c[nH]c4ccccc34)C(=O)N[C@@H](CCCC)C(=O)N[C@@H](Cc3c[nH]c4ccccc34)C(=O)N[C@@H]([C@@H](C)O)C(=O)N[C@H]3CSSC[C@H](NC(=O)[C@H](CCCNC(=N)N)NC(=O)[C@H](CC(C)C)NC(=O)CNC1=O)C(=O)N[C@@H](CCCCN)C(=O)N[C@@H](CC(C)C)C(=O)N[C@@H](Cc1c[nH]c4ccccc14)C(=O)N[C@H](C(=O)N[C@@H](CCCNC(=N)N)C(=O)N[C@@H](CCCCN)C(=O)N[C@@H](CCC(=O)O)C(=O)N[C@@H](Cc1c[nH]c4ccccc14)C(N)=O)CSSC[C@H](NC(=O)[C@H](C)NC(=O)[C@H](CCCNC(=N)N)NC(=O)[C@H](CCCCN)NC(=O)[C@H](CO)NC(=O)[C@H](CC(=O)O)NC3=O)C(=O)N2 [compound 452] | 64.6 | 26 | 2.51 | –
C#CC[C@@H]1NC(=O)[C@H](CO)NC(=O)[C@H](CC(=O)O)NC(=O)[C@@H]2CSSC[C@@H]3NC(=O)[C@H](CCCNC(=N)N)NC(=O)[C@H](CC(C)C)NC(=O)CNC(=O)[C@H](CCC(=O)O)NC(=O)[C@H](CSSC[C@H](NC(=O)[C@H](Cc4ccc(O)cc4)NC(=O)[C@@H](N)CC#N)C(=O)N[C@@H](CCC(N)=O)C(=O)N[C@@H](CCCCN)C(=O)N[C@@H](Cc4c[nH]c5ccccc45)C(=O)N[C@@H](CCCC)C(=O)N[C@@H](Cc4c[nH]c5ccccc45)C(=O)N[C@@H]([C@@H](C)O)C(=O)N2)NC(=O)[C@H](CSSC[C@@H](C(=O)N[C@@H](CCCNC(=N)N)C(=O)N[C@@H](CCCCN)C(=O)N[C@@H](CCC(=O)O)C(=O)N[C@H](C(N)=O)[C@@H](C)CC)NC(=O)[C@H](Cc2c[nH]c4ccccc24)NC(=O)[C@H](CC(C)C)NC(=O)[C@H](CCCCN)NC3=O)NC(=O)[C@H](C)NC(=O)[C@H](CCCNC(=N)N)NC1=O [compound 521] | 92.1 | 62 | 1.48 | –
C#CC[C@H](N)C(=O)N[C@@H](Cc1ccc(O)cc1)C(=O)N[C@H]1C[Se][Se]C[C@@H]2NC(=O)[C@@H]3CSSC[C@@H](C(=O)N[C@@H](CCCNC(=N)N)C(=O)N[C@@H](CCCCN)C(=O)N[C@@H](CCC(=O)O)C(=O)N[C@H](C(N)=O)[C@@H](C)CC)NC(=O)[C@H](Cc4c[nH]c5ccccc45)NC(=O)[C@H](CC(C)C)NC(=O)[C@H](CCCCN)NC(=O)[C@H](CSSC[C@H](NC(=O)[C@H]([C@@H](C)O)NC(=O)[C@H](Cc4c[nH]c5ccccc45)NC(=O)[C@H](CCCC)NC(=O)[C@H](Cc4c[nH]c5ccccc45)NC(=O)[C@H](CCCCN)NC(=O)[C@H](CCC(N)=O)NC1=O)C(=O)N[C@@H](CC(=O)O)C(=O)N[C@@H](CO)C(=O)N[C@@H](CCCCN)C(=O)N[C@@H](CCCNC(=N)N)C(=O)N[C@@H](C)C(=O)N3)NC(=O)[C@H](CCCNC(=N)N)NC(=O)[C@H](CC(C)C)NC(=O)CNC(=O)[C@H](CCC(=O)O)NC2=O [compound 838] | 58.1 | 61 | 0.949 | –
C#CC[C@H](N)C(=O)N[C@@H](CCC(=O)O)C(=O)N[C@H]1CSSC[C@@H]2NC(=O)[C@@H]3CSSC[C@@H](C(=O)N[C@@H](CCCNC(=N)N)C(=O)N[C@@H](CCCCN)C(=O)N[C@@H](CCC(=O)O)C(=O)N[C@H](C(N)=O)[C@@H](C)CC)NC(=O)[C@H](Cc4c[nH]c5ccccc45)NC(=O)[C@H](CC(C)C)NC(=O)[C@H](CCCCN)NC(=O)[C@H](CSSC[C@H](NC(=O)[C@H]([C@@H](C)O)NC(=O)[C@H](Cc4c[nH]c5ccccc45)NC(=O)[C@H](CCCC)NC(=O)[C@H](Cc4c[nH]c5ccccc45)NC(=O)[C@H](CCCCN)NC(=O)[C@H](CCC(N)=O)NC1=O)C(=O)N[C@@H](CC(=O)O)C(=O)N[C@@H](CCC(=O)O)C(=O)N[C@@H](CCCCN)C(=O)N[C@@H](CCCNC(=N)N)C(=O)N[C@@H](CCC(=O)O)C(=O)N3)NC(=O)[C@H](CCCNC(=N)N)NC(=O)[C@H](CC(C)C)NC(=O)CNC(=O)[C@H](CCC(=O)O)NC2=O [compound 751] | 1920 | 189 | 10.2 | –
C#CC[C@H](N)C(=O)N[C@@H](Cc1ccc(O)cc1)C(=O)N[C@H]1CSSC[C@@H]2NC(=O)[C@@H]3CSSC[C@@H](C(=O)N[C@@H](CCCNC(=N)N)C(=O)N[C@@H](CCCCN)C(=O)N[C@@H](CC(C)C)C(=O)N[C@H](C(N)=O)[C@@H](C)CC)NC(=O)[C@H](Cc4c[nH]c5ccccc45)NC(=O)[C@H](CC(C)C)NC(=O)[C@H](CCCCN)NC(=O)[C@H](CSSC[C@H](NC(=O)[C@H]([C@@H](C)O)NC(=O)[C@H](Cc4c[nH]c5ccccc45)NC(=O)[C@H](CCCC)NC(=O)[C@H](Cc4c[nH]c5ccccc45)NC(=O)[C@H](CCCCN)NC(=O)[C@H](CCC(N)=O)NC1=O)C(=O)N[C@@H](CC(=O)O)C(=O)N[C@@H](CO)C(=O)N[C@@H](CCCCN)C(=O)N[C@@H](CCCNC(=N)N)C(=O)N[C@@H](C)C(=O)N3)NC(=O)[C@H](CCCNC(=N)N)NC(=O)[C@H](CC(C)C)NC(=O)CNC(=O)[C@H](CCC(=O)O)NC2=O [compound 655] | 25.9 | 9 | 2.91 | –
C#CC[C@H](N)C(=O)N[C@@H](Cc1ccc(O)cc1)C(=O)N[C@H]1CSSC[C@@H]2NC(=O)[C@@H]3CSSC[C@@H](C(=O)N[C@@H](CCCNC(=N)N)C(=O)N[C@@H](CCCCN)C(=O)N[C@@H](CCC(=O)O)C(=O)N[C@H](C(N)=O)[C@@H](C)CC)NC(=O)[C@H](Cc4c[nH]c5ccccc45)NC(=O)[C@H](CC(C)C)NC(=O)[C@H](CCCCN)NC(=O)[C@H](CSSC[C@H](NC(=O)[C@H]([C@@H](C)O)NC(=O)[C@H](Cc4c[nH]c5ccccc45)NC(=O)[C@H](CCCC)NC(=O)[C@H](CCc4ccc(Br)cc4)NC(=O)[C@H](CCCCN)NC(=O)[C@H](CCC(N)=O)NC1=O)C(=O)N[C@@H](CC(=O)O)C(=O)N[C@@H](CO)C(=O)N[C@@H](CCCCN)C(=O)N[C@@H](CCCNC(=N)N)C(=O)N[C@@H](C)C(=O)N3)NC(=O)[C@H](CCCNC(=N)N)NC(=O)[C@H](CC(C)C)NC(=O)CNC(=O)[C@H](CCC(=O)O)NC2=O [compound 1603] | 47.9 | 207 | 0.23 | –
C#CC[C@H](N)C(=O)NCCCC[C@@H]1NC(=O)[C@H](CCCNC(=N)N)NC(=O)[C@H](CCCCN)NC(=O)[C@H](CO)NC(=O)[C@H](CC(=O)O)NC(=O)[C@@H]2CSSC[C@@H]3NC(=O)[C@H](CCCNC(=N)N)NC(=O)[C@H](CC(C)C)NC(=O)CNC(=O)[C@H](CCC(=O)O)NC(=O)[C@H](CSSC[C@H](NC(=O)[C@H](Cc4ccc(O)cc4)NC(=O)[C@@H](N)CCC)C(=O)N[C@@H](CCC(N)=O)C(=O)N[C@@H](CCCCN)C(=O)N[C@@H](Cc4c[nH]c5ccccc45)C(=O)N[C@@H](CC(C)C)C(=O)N[C@@H](Cc4c[nH]c5ccccc45)C(=O)N[C@@H]([C@@H](C)O)C(=O)N2)NC(=O)[C@H](CSSC[C@@H](C(=O)N[C@@H](CCCNC(=N)N)C(=O)N[C@@H](CCCCN)C(=O)N[C@H](C(=O)N[C@H](C(N)=O)[C@@H](C)CC)[C@@H](C)CC)NC(=O)[C@H](Cc2c[nH]c4ccccc24)NC(=O)[C@H](CC(C)C)NC(=O)[C@H](CCCCN)NC3=O)NC1=O [compound 438] | – | 7 | – | –
CCCC[C@@H]1NC(=O)[C@H](Cc2c[nH]c3ccccc23)NC(=O)[C@H](CCCCN)NC(=O)[C@H](CCC(N)=O)NC(=O)[C@@H](NC(=O)[C@@H](N)Cc2cn(CCCOCCOCCOCCOCCOCCOCCOCCOCCOCCOCCN)nn2)CSSC[C@@H]2NC(=O)[C@@H]3CSSC[C@@H](C(=O)N[C@@H](CCCNC(=N)N)C(=O)N[C@@H](CCCCN)C(=O)N[C@H](C(=O)N[C@H](C(N)=O)[C@@H](C)CC)[C@@H](C)CC)NC(=O)[C@H](Cc4c[nH]c5ccccc45)NC(=O)[C@H](CC(C)C)NC(=O)[C@H](CCCCN)NC(=O)[C@H](CSSC[C@H](NC(=O)[C@H]([C@@H](C)O)NC(=O)[C@H](Cc4c[nH]c5ccccc45)NC1=O)C(=O)N[C@@H](CC(=O)O)C(=O)N[C@@H](CO)C(=O)N[C@@H](CCCCN)C(=O)N[C@@H](CCCNC(=N)N)C(=O)N[C@@H](C)C(=O)N3)NC(=O)[C@H](CCC(=O)O)NC(=O)[C@H](CC(C)C)NC(=O)CNC(=O)[C@H](CCC(=O)O)NC2=O [compound 407] | – | – | – | 85
